Assays:
[1] = tested on: Vincristine resistant leukemia P-388 cells (P-388/VCR); experiment: Antitumor activity against Vincristine resistant leukemia P-388 in mice (Test Example 4); format: in vivo, CDF1 mice; details: for ILS (%): P-388/VCR; for effectiveness against Vincristine resistant leukemia P-388: summary in words of Table 4
Description: (§1) Vincristine resistant or sensitive leukemia P-388 cells (1 x 10^6 cells) were intraperitoneally inoculated into CDF1 mice. Intraperitoneal administration of Rhizoxin and Vincristine was made on 1, 6 and 9 days after the tumor inoculation. The result is shown in Table 4 in terms of a percentage of an increase in the average life span of the treated mice over that of the control mice.

leukemia P-388 cells = experiment: Antitumor activity against Vincristine sensitive leukemia P-388 in mice (Test Example 4); format: in vivo, CDF1 mice; details: for ILS (%): P-388
Description: as §1

Solubility in solvents = format: physicochemical
Leukemia L-1210 cells = experiment: Antitumor activity against leukemia L-1210 in mice (Test Example 2); format: in vivo, CDF1 mice; details: daily for 4 days; for ILS (%): increase in life span over control
Experimental: Leukemia L-1210 cells (1 x 10^5 cells) were intraperitoneally inoculated into CDF1 mice. Intraperitoneal administration of Rhizoxin was started 24 hours after the tumor inoculation and continued daily for 4 days. The result is shown in Table 2 in terms of a percentage of an increase in the life span of the treated mice over that of the control mice (ILS).

[2] = tested on: ascites tumor MH-134 cells due to the cancer of the liver; experiment: Antitumor activity against ascites tumor MH-134 in mice (Test Example 1); format: in vivo, C3H/He mice; details: for Average life span: once a day for 10 days from 24 hours after inoculation, control 17.2 days; for T/C (%): once a day for 10 days, ratio of average life span, treated/control x 100
Experimental: 1 x 10^6 of ascites tumor MH-134 cells due to the cancer of the liver were intraperitoneally inoculated into C3H/He mice (8 weeks old, each group 6 mice). Rhizoxin was dissolved with the addition of a small quantity of ethyl alcohol (not more than 1 volume percent on the basis of the total volume of the final solution), and further dissolved in a 0.85 X aqueous physiological sodium chloride solution containing 0.05 % of Tween 20. This solution was aseptically filtered, and 24 hours after the tumor inoculation, the solution was intraperitoneally administered to the mice continually for 10 days at a rate of 0.2 ml/mouse once a day. The antitumor activity of Rhizoxin was evaluated on the basis of the ratio (T/C) x 100 wherein T is the average life span of the Rhizoxin administered groups and C is the average life span of the control group.

rice seedling = experiment: Induction of the characteristic symptoms of rice seedling blight; format: in vivo; details: Oryza sativa; extremely low concentration at which the action is still seen; read-out: concentration that can induce the characteristic symptoms of rice seedling blight
Experimental: (§2) Rhizoxin has an action which can induce the characteristic symptoms of rice seedling blight, even at an extremely low concentration (10 ng/ml).

plant pathogenic fungi = experiment: Growth of plant pathogenic fungi; format: cell-based
Experimental: as §2

plants other than rice = experiment: Growth of the root of plants other than rice; details: in vivo
Experimental: as §2

[3] = tested on: plant pathogenic bacteria; experiment: Multiplication of plant pathogenic bacteria; format: cell-based; details: bacteria that are prokaryotes
Experimental: as §2

[4] = Toxicity by intraperitoneal injection into mice; details: mouse, in vivo, ip, C3H/He mice, read-out: LDS 0 value
Experimental: The toxicity of Rhizoxin was examined by the intraperitoneal injection of said compound into C3H/He mice, and as the LDS 0 value was above 5 mg/kg, it may be mentioned that the value is far above the dosage usually given in treatment.

B-16 melanoma = experiment: Tumor growth inhibition of B-16 melanoma in mice (Test Example 3); format: in vivo, BDF1 mice; details: daily for 4 days, based on tumor weight from tumor diameter
Experimental: Tumor fragments of B-16 melanoma were subcutaneously inoculated into BDF1 mice. Intraperitoneal administration of Rhizoxin was begun 24 hours after the tumor inoculation and continued daily for 4 days.
The-result is shown in Table 3 in terms of a percentage of tumor growth inhibition based on the tumor weight which can be obtained from the measurement of the tumor diameter.

[5] = 0.75 mg/Kg/day intraperitoneally on 1, 6 and 9 days after inoculation
[6] = 1.0 mg/Kg/day intraperitoneally on 1, 6 and 9 days after inoculation
[7] = 1.5 mg/Kg/day intraperitoneally on 1, 6 and 9 days after inoculation
[8] = 2.0 mg/Kg/day intraperitoneally on 1, 6 and 9 days after inoculation
[9] = 0.25 mg/Kg/day intraperitoneally
[10] = 0.5 mg/Kg/day intraperitoneally
[11] = 1.0 mg/Kg/day intraperitoneally
[12] = 15 mcg/Kg/day intraperitoneally
[13] = 150 mcg/Kg/day intraperitoneally

In the case of CO[C@@H](/C(C)=C/C=C/C(C)=C/c1coc(C)n1)[C@@H](C)[C@@H]1C[C@H](O)[C@@]2(C)O[C@@H]2/C=C/[C@@H](C)[C@H]2C[C@H](CC(=O)O2)C[C@@H]2O[C@H]2C(=O)O1 [Rhizoxin], the “ILS (%)” value [1, 5] is reported as 28.2%, the “ILS (%)” value [1, 6] is reported as 35.9% and the “ILS (%)” value [1, 7] is reported as 57.3%. The “ILS (%)” value [1, 8] was 61.2%, the “ILS (%)” value ([1]; 4.0 mg/Kg/day intraperitoneally on 1, 6 and 9 days after inoculation) was “toxic” and the “effectiveness against Vincristine resistant leukemia P-388” value [1] was “clearly effective”. For the same molecule, the “ILS (%)” value (leukemia P-388 cells; 0.5 mg/Kg/day intraperitoneally on 1, 6 and 9 days after inoculation) was 46.2%, the “ILS (%)” value (leukemia P-388 cells; [5]) was 65.6% and the “ILS (%)” value (leukemia P-388 cells; [6]) was 82.9%. For the same molecule, the “ILS (%)” value (leukemia P-388 cells; [7]) was 123.7%, the “ILS (%)” value (leukemia P-388 cells; 3.0 mg/Kg/day intraperitoneally on 1, 6 and 9 days after inoculation) was “toxic” and the “effectiveness against leukemia P-388” value (leukemia P-388 cells; summary in words of Table 4) was “effective”. For the same molecule, the Solubility in solvents (Solubility in solvents; benzene, chloroform, acetone, alcohol, etc.) was “Easily soluble”, the Solubility in solvents (Solubility in solvents; water, n-hexane) was “sparingly soluble” and the “Change in body weight (g) (day 1-7)” value (Leukemia L-1210 cells; [9]) was “+0.4 g”. The “ILS (%)” value (Leukemia L-1210 cells; [9]) was 43%, the “Change in body weight (g) (day 1-7)” value (Leukemia L-1210 cells; [10]) was -0.7 g and the “ILS (%)” value (Leukemia L-1210 cells; [10]) was 67%. For the same molecule, the “Change in body weight (g) (day 1-7)” value (Leukemia L-1210 cells; [11]) was -2.9 g, the “ILS (%)” value (Leukemia L-1210 cells; [11]) was 81% and the “ILS (%)” value (Leukemia L-1210 cells; 2.0 mg/Kg/day intraperitoneally) was “toxic”. The “Average life span” value [2, 12] was 31.8 days, the “T/C (%)” value [2, 12] was 185% and the “Average life span” value [2, 13] was 47.8 days. For the same molecule, the “T/C (%)” value [2, 13] was 278%, the minimal effective concentration (rice seedling) was 0.01 µg/mL and the “action on the growth of plant pathogenic fungi” value (plant pathogenic fungi) was “inhibits the growth”. For the same molecule, the “action on the growth of the root of the plants other than rice” value (plants other than rice) was “check the growth of the root”, the “action on the multiplication of the plant pathogenic bacteria” value [3] was “no recognizable action” and the LD50 [4] was > 5 mg/kg. The “Tumor growth inhibition (%)” value (B-16 melanoma; [9]) was 38%, the “Tumor growth inhibition (%)” value (B-16 melanoma; [10]) was 68% and the “Tumor growth inhibition (%)” value (B-16 melanoma; [11]) was 62%.

With CC[C@]1(O)C[C@H]2CN(CCc3c([nH]c4ccccc34)[C@@](C(=O)OC)(c3cc4c(cc3OC)N(C=O)[C@H]3[C@@](O)(C(=O)OC)[C@H](OC(C)=O)[C@]5(CC)C=CCN6CC[C@]43[C@@H]65)C2)C1 [Vincristine, reference compound] the “ILS (%)” value [1, 6] was 6.8%, the “ILS (%)” value [1, 8] was “toxic” and the “effectiveness against Vincristine resistant leukemia P-388” value [1] was “not affected”.

Source: patent EP0145177A2, “Chemotherapeutic agents based on rhizoxin” (priority 1983, dated 1985)
